From patent publication US20230303544A1, “LMO2 PROTEIN INHIBITORS” (UNIVERSITY OF OXFORD, priority 2020, published 2023)
Entries after “also recorded” stand apart in the source; their conditions may differ.

What was measured:
[1] = target: T1, scFv-LMO2 (Homo sapiens, UniProt P25791); assay: Photoaffinity labelling (PAL) pulldown; assay type: binding; settings: 20 μM Abd-L26, UV light, avidin beads
T1 construct: made in house; host or cells: E. coli C41 (DE3)
T1 sequence (P25791 1-158): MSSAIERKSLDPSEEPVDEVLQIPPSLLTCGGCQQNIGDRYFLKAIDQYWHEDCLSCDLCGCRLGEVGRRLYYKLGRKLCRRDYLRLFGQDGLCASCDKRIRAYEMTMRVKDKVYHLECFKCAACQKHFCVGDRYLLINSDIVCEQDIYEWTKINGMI
Protocol: 20 μM of Abd-L26 with or without 100 μM of Abd-L9 (competitor) are added in a final volume of 400 μL of PBS with 40 μg of purified protein of interest (scFv-LMO2). The same samples are prepared for the no UV controls. The samples are incubated for 25 minutes at RT. The samples to be crosslinked are put into ice and under the UV lamp for crosslinking for 1 hour. The no UV controls are kept on ice. During the 1 hour of crosslinking, the agarose monomeric avidin beads (Cat #20228, Thermofisher) are washed twice with PBS. After the crosslink, 20 μL of washed beads are added in all the samples (crosslinked and non-crosslinked) and incubated for 2 hours at 4° C. on a roller. 2 hours later, wash the beads three times with 400 μL of PBS. The samples are finally denatured with 50 μL of 2× loading buffer with BME added directly on the beads (and boiled at 100° C. for 5 minutes) and loaded for a western blot analysis.

[2] = target: T2, LMO2-iDAb LMO2dm3 interaction (Homo sapiens, UniProt P25791); assay: LMO2-iDAb LMO2dm3 BRET assay; assay type: cell-based; settings: BRET dose response, HEK293T cells, 0.01-50 μM, 22 h
T2 construct: LMO2 cDNA was cloned into the pEF-RLuc8-MCS and pEF-MCS-RLuc8 plasmids; expressed in transfected cells; host or cells: HEK293T
T2 sequence (P25791 1-158): T1 sequence (P25791 1-158)
Protocol: (§1) For all BRET experiments (titration curves and competition assays) 650,000 HEK293T were seeded in each well of a 6 well plates. After 24 hours at 37° C., cells were transfected with a total of 1.6 μg of DNA mix, containing the donor+acceptor±competitor plasmids, using Lipofectamine 2000 transfection reagent (Thermo-Fisher). In dose response competition experiments, competitors were transfected with the following amount of DNA: 0.1; 0.5 and 1 μg. In single dose competition experiments, competitors were transfected with […] of DNA. Cells were detached 24 hours later, washed with PBS and seeded in a white 96-well plate (clear bottom, PerkinElmer, Cat #6005181) in OptiMEM no phenol red medium complemented with 4% FBS and cells were incubated for an additional 20-24 hours at 37° C. before the BRET assay reading. A detailed BRET protocol is provided by Bery and Rabbitts, (2019).
Compounds were prepared in 100% DMSO at 10 mM. For BRET competition assays, cells were treated with the indicated compounds at concentration of 1 (or 5), 10 and 20 μM for 22 h. For BRET-based dose response experiments, cells were treated with compounds at concentration of 0.01, 0.1, 1, 4, 10, 25 and 50 μM for 22 h. The compounds were diluted in the BRET medium: OptiMEM no phenol red (Life Technologies) supplemented with 4% FBS and with a final concentration of 0.2% DMSO.
(§2) BRET2 signal was determined immediately after injection of coelenterazine 400a substrate (10 μM final) to cells (Cayman Chemicals), using a CLARIOstar instrument (BMG Labtech) with a luminescence module. Total GFP^2 fluorescence was detected with excitation and emission peaks set at 405 nm and 515 nm respectively. Total RLuc8 luminescence was measured with the Luminescence 400-700 nm-wavelength filter.
The BRET signal or BRET ratio corresponds to the light emitted by the GFP^2 acceptor constructs (515 nm±30) upon addition of coelenterazine 400a divided by the light emitted by the RLuc8 donor constructs (410 nm±80). The background signal is subtracted from that BRET ratio using the donor-only negative control where only the RLuc8 fusion plasmid is transfected into the cells. The normalized BRET ratio is the BRET ratio normalized to a negative control (iDAb control or DMSO control) during a competition assay. Total GFP^2 and RLuc8 signals were used to control the protein expression from each plasmid.

[3] = target: T3, LMO2-iDAb LMO2 (unmutated iDAb) interaction (Homo sapiens, UniProt P25791); assay: LMO2-iDAb LMO2 (unmutated iDAb) BRET assay; assay type: cell-based; settings: BRET dose response
T3 construct: LMO2 cDNA was cloned into the pEF-RLuc8-MCS and pEF-MCS-RLuc8 plasmids; expressed in transfected cells; host or cells: HEK293T
T3 sequence (P25791 1-158): T1 sequence (P25791 1-158)
Protocol: as §1
Compounds were prepared in 100% DMSO at 10 mM. […]
as §2, with “filter. […]” for “filter.”

IC50 [2] [µM] | concentration at which LMO2-iDAb LMO2 interaction is inhibited [3] | Structure (SMILES) | photo-crosslinking to LMO2 protein (pulldown, Western blot) [1]
– | – | O=C(CCCC[C@H]1SC[C@H]2NC(=O)N[C@H]21)NCCOCCOCC(=O)Nc1ccc(NC(=O)c2coc(N3CCN(Cc4ccc(C(=O)c5ccccc5)cc4)CC3)n2)cc1 [Abd-L26, 2-(4-(4-benzoylbenzyl)piperazin-1-yl)-N-(4-(2-(2-(2-(5-((3aR,4R,6aS)-2-oxohexahydro-1H-thieno[3,4-d]imidazol-4-yl)pentanamido)ethoxy)ethoxy)acetamido)phenyl)oxazole-4-carboxamide] | observed a biotin labelled protein; also recorded: confirmed binding to LMO2 protein
6.8 | above 25 μM | COc1cccc(CN2CCN(c3nc(C(=O)Nc4ccc(OC)nc4)cs3)CC2)c1 [Abd-L22, 2-(4-(3-methoxybenzyl)piperazin-1-yl)-N-(6-methoxypyridin-3-yl)thiazole-4-carboxamide] | –
